# Source: patent US5621002A, “Prodrugs for enzyme mediated activation” (Behringwerke Aktiengesellschaft, priority 1993, dated 1997)
# T1: antibody-β-glucuronidase fusion protein (Homo sapiens, UniProt P08236)
# T1 construct: antibody part only targets
# T1 sequence (P08236 23-651): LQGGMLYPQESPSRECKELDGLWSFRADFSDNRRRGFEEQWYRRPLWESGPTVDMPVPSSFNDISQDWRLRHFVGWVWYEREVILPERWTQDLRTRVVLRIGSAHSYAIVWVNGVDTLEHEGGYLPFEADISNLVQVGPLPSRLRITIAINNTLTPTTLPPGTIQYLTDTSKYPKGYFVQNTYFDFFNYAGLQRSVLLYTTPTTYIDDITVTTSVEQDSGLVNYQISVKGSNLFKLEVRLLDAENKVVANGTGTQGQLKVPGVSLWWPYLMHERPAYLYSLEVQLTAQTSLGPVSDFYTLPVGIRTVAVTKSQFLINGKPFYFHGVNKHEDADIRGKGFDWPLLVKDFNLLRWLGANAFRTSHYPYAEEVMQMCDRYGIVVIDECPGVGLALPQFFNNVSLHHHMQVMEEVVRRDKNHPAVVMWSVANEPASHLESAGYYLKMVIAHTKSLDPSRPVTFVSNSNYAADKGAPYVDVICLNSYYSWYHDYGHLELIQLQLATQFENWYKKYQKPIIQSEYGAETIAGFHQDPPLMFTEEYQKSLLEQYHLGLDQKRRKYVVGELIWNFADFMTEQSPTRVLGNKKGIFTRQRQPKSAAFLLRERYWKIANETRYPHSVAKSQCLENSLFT
# What was measured:
# [1] = biological target: T1, antibody-β-glucuronidase fusion protein; experiment: Km and Vmax determination, enzymatic cleavage by fusion protein monitored by HPLC; type: biochemical; details: 100 mM phosphate buffer + 1 mg/ml BSA, pH 7.2, 37° C., substrate 10-10000 μM
# Protocol: (§1) Comparison of Km- and V max-values of natural and improved substrate for antibody β-glucuronidase fusion protein
# (§2) For Km- and Vmax-determination 3'-N-[4-(beta-D-Glucuronyloxy)-3-nitro-benzyloxycarbonyl]-doxorubicin and prodrug A should be diluted in the range of 10-10000 μM in 100 mM phosphate buffer+1 mg/ml BSA, pH 7.2. Enzymatic cleavage should be done with constant amounts of fusion protein at 37° C. Cleavage can be monitored by HPLC analysis. Km- and Vmax-values can be calculated with the software program GraFit 2.0 (Erithacus Software Ltd.).
# (§3) The HPLC apparatus consisted of an autosampler (Abimed, model 231), an automatic sample extraction system (AASP, Varian) equipped with minicartridges containing C 18 reversed phase silica gel (Analytichem), a gradient pump (Gynkotek, model 480), a fluorescence detector (Shimazdu RF 535, Excitation: 495 nm, Emission: 560 nm). Before sample injection the minicartridges were preconditioned with 2.5 ml methanol and 1.5 ml phosphate buffer, pH 6. Analytes retained on the reversed phase silica gel were then eluted by valve switching and connection of the minicartridges to the mobile phase. Chromatography was performed on reversed phase material (Nucleosil C 18, 5 μm particle size, 120 mm length, 4,5 mm I.D.) and gradient elution. Elution was done by a gradient composed of 2 components (A: 20 mM phosphate, pH 3, B: acetonitrile). […]
# [2] = substrate: [H][C@]1(O[C@H]2C[C@H](NC(=O)OCc3ccc(O[C@@H]4O[C@H](C(=O)O)[C@@H](O)[C@H](O)[C@H]4O)c([N+](=O)[O-])c3)[C@H](O)[C@H](C)O2)C[C@](O)(C(=O)CO)Cc2c(O)c3c(c(O)c21)C(=O)c1c(OC)cccc1C3=O; experiment: as above; type: biochemical, human; details: other: 100 mM phosphate buffer + 1 mg/ml BSA, pH 7.2, 37° C., substrate 10-10000 μM
# Protocol: as §1, §2, §3
Molecule,Km [1],Vmax [1],Km [2],Vmax [2]
COc1cccc2c1C(=O)c1c(O)c3c(c(O)c1C2=O)C[C@@](O)(C(=O)CO)C[C@@H]3O[C@H]1C[C@H](NC(=O)OCc2ccc(O[C@@H]3O[C@H]([C@H](O)C(=O)O)[C@H](O)[C@H]3O)c([N+](=O)[O-])c2)[C@H](O)[C@H](C)O1 [Prodrug A],< 500 µM,~ 0.635 nmol/μg/min,,
"antibody-β-glucuronidase fusion protein (Homo sapiens) (protein, antibody part only targets) LQGGMLYPQESPSRECKELDGLWSFRADFSDNRRRGFEEQWYRRPLWESGPTVDMPVPSSFNDISQDWRLRHFVGWVWYEREVILPERWTQDLRTRVVLRIGSAHSYAIVWVNGVDTLEHEGGYLPFEADISNLVQVGPLPSRLRITIAINNTLTPTTLPPGTIQYLTDTSKYPKGYFVQNTYFDFFNYAGLQRSVLLYTTPTTYIDDITVTTSVEQDSGLVNYQISVKGSNLFKLEVRLLDAENKVVANGTGTQGQLKVPGVSLWWPYLMHERPAYLYSLEVQLTAQTSLGPVSDFYTLPVGIRTVAVTKSQFLINGKPFYFHGVNKHEDADIRGKGFDWPLLVKDFNLLRWLGANAFRTSHYPYAEEVMQMCDRYGIVVIDECPGVGLALPQFFNNVSLHHHMQVMEEVVRRDKNHPAVVMWSVANEPASHLESAGYYLKMVIAHTKSLDPSRPVTFVSNSNYAADKGAPYVDVICLNSYYSWYHDYGHLELIQLQLATQFENWYKKYQKPIIQSEYGAETIAGFHQDPPLMFTEEYQKSLLEQYHLGLDQKRRKYVVGELIWNFADFMTEQSPTRVLGNKKGIFTRQRQPKSAAFLLRERYWKIANETRYPHSVAKSQCLENSLFT",,,1300 µM,0.635 nmol/µg/min
